Structures can show the parent of a compound that is named as a salt.
Experiments:
[1] = test system: HSV; assay: Anti-HSV activity of tenofovir prodrugs; assay type: cell-based
[2] = test system: HIV; assay: Cervical vaginal (CV) tissue explant HIV infection (p24 production, AUC); assay type: cell-based
Description: FIGS. 1A, 1B and 1C show EVG dose response plots on p24 production.

[3] = EVG concentration in CV tissues; assay type: in vitro ADME
Procedure: FIG. 2 is a graph showing EVG concentrations in infected vs. not infected CV tissues. Median concentrations and ranges (min and max) are shown. PA=Protein adjusted. […] Based on the data, it can be extrapolated that EVG tissue concentrations of >1000 ng/g provided 100% HIV prophylaxis. (FIG. 2).

## CC(C)OC(=O)OCOP(=O)(CO[C@H](C)Cn1cnc2c(N)ncnc21)OCOC(=O)OC(C)C [TDF, tenofovir disoproxil fumarate]
[1]
  activity against HSV: improved activity against HSV

## CC(C)OC(=O)[C@H](C)N[P@](=O)(CO[C@H](C)Cn1cnc2c(N)ncnc21)Oc1ccccc1 [TAF, tenofovir alafenamide fumarate]
[1]
  activity against HSV: most potent

## Nc1nc2c(ncn2COCCO)c(=O)[nH]1 [acyclovir (ACV), acyclovir]
[1]
  activity against HSV: improved activity against HSV

## COc1cc2c(cc1Cc1cccc(Cl)c1F)c(=O)c(C(=O)O)cn2[C@H](CO)C(C)C [EVG, elvitegravir]
[2]; Co-exposure, virus and EVG added together, EVG 0.1 μg/ml
  % protection of mean AUC versus HIV control: 97.56%
[2]; Co-exposure, virus and EVG added together, EVG 1 μg/ml
  % protection of mean AUC versus HIV control: 100%
[2]; Post-exposure 4 h, EVG 0.1 μg/ml
  % protection of mean AUC versus HIV control: 86%
[2]; Post-exposure 4 h, EVG 1 μg/ml
  % protection of mean AUC versus HIV control: 99.56%
[2]; Post-exposure 4 h, EVG 10 μg/ml
  % protection of mean AUC versus HIV control: 100%
[2]; Post-exposure 9 h, EVG 0.1 μg/ml
  % protection of mean AUC versus HIV control: 85.85%
[2]; Post-exposure 9 h, EVG 1 μg/ml
  % protection of mean AUC versus HIV control: 100%
[2]; Post-exposure 9 h, EVG 10 μg/ml
  % protection of mean AUC versus HIV control: 100%
[2]; Post-exposure 14 h, EVG 10 μg/ml
  % protection of mean AUC versus HIV control: 100%
[2]; Post-exposure 24 h, EVG 10 μg/ml
  % protection of mean AUC versus HIV control: 100%
[2]; Pre-exposure 0 h, EVG 0.1 μg/ml
  % protection of mean AUC versus HIV control: 34.5%
[2]; Pre-exposure 0 h, EVG 1 μg/ml
  % protection of mean AUC versus HIV control: 99.97%
[2]; Pre-exposure 0 h, EVG 10 μg/ml
  % protection of mean AUC versus HIV control: 100%
[2]; Pre-exposure 7 h, EVG 0.1 μg/ml
  % protection of mean AUC versus HIV control: 21.53%
[2]; Pre-exposure 7 h, EVG 1 μg/ml
  % protection of mean AUC versus HIV control: 99.1%
[2]; Pre-exposure 7 h, EVG 10 μg/ml
  % protection of mean AUC versus HIV control: 100%
[2]; Pre-exposure 24 h, EVG 0.1 μg/ml
  % protection of mean AUC versus HIV control: 44.8%
[2]; Pre-exposure 24 h, EVG 1 μg/ml
  % protection of mean AUC versus HIV control: 99.51%
[2]; Pre-exposure 24 h, EVG 10 μg/ml
  % protection of mean AUC versus HIV control: 100%
[3]; extrapolated from CV tissue data
  EVG tissue concentration that provided 100% HIV prophylaxis: > 1000 ng/g
[3]; following 4 h of exposure to 1 μg/ml of EVG
  median EVG concentration in CV tissues: 1150 ng/g
[3]; following 4 h of exposure to 10 μg/ml of EVG
  median EVG concentration in CV tissues: 13,381 ng/g

## C[C@H](Cn1cnc2c(N)ncnc21)OCP(=O)(O)O [TFV, tenofovir]
[1]
  activity against HSV: improved activity against HSV
